# Results: ChEMBL document CHEMBL1681675, “3,5-diarylazoles as novel and selective inhibitors of protein kinase D” (Bioorg Med Chem Lett, 2011)
# Experiment: Solubility of the compound
# Type: physicochemical
# Conditions: not given
row,SMILES,solubility [µM]
1,CCCNC(=O)c1cccc(-c2cc(-c3ccc(N4CCN(C)CC4)cc3)[nH]n2)c1,330
2,COCCNCc1ccc(-c2cc(-c3cccc(C(=O)NC(C)C)c3)n[nH]2)cc1,910
3,CC(C)NC(=O)c1cccc(-c2cc(-c3ccc(N4CCN(C)CC4)cc3)[nH]n2)c1,270
4,CC(C)NC(=O)c1cccc(-c2cc(-c3ccc(N4CCN(C)CC4)c(Br)c3)[nH]n2)c1,40
5,CC(C)NC(=O)c1cccc(-c2cc(-c3ccc(N4CCN(C)CC4)c(-c4ccccc4)c3)[nH]n2)c1,< 10
6,COCCNC(=O)c1cccc(-c2cc(-c3ccc(N4CCN(C)CC4)cc3)[nH]n2)c1,760
7,CN1CCN(c2ccc(-c3cc(-c4cccc(C(=O)NCC#N)c4)no3)cc2)CC1,< 10
8,C[C@@H](C#N)NC(=O)c1cccc(-c2cc(-c3ccc(N4CCN(C)CC4)cc3)on2)c1,< 10
9,CC(C)NC(=O)c1cccc(-c2cc(-c3ccc(CNCC(F)(F)F)cc3)[nH]n2)c1,< 10
10,CC(C)NC(=O)c1cccc(-c2cc(-c3ccc(CNC4CCOCC4)cc3)on2)c1,140
11,N#CCNC(=O)c1cccc(-c2cc(-c3ccc(CNC4CCOCC4)cc3)on2)c1,170
12,CC(C)(C#N)NC(=O)c1cccc(-c2cc(-c3ccc(CNC4CCOCC4)cc3)on2)c1,70
13,C[C@H](C#N)NC(=O)c1cccc(-c2cc(-c3ccc(CNC4CCOCC4)cc3)on2)c1,240
14,C[C@@H](C#N)NC(=O)c1cccc(-c2cc(-c3ccc(CNC4CCOCC4)cc3)on2)c1,110

# Second part, the molecule after the results:
row,solubility [µM],SMILES
1,220,CC(C)NC(=O)c1cccc(-c2cc(-c3ccc(CNC4CC4)cc3)[nH]n2)c1
2,< 10,CC(C)NC(=O)c1cccc(-c2cc(-c3ccc(N4CCN(C)CC4)c(-c4ccncc4)c3)[nH]n2)c1
3,50,CN1CCN(c2ccc(-c3cc(-c4cccc(C(=O)NCC#N)c4)n[nH]3)cc2)CC1
4,< 10,CN1CCN(c2ccc(-c3cc(-c4cccc(C(=O)NCC#N)c4)n[nH]3)cc2Br)CC1
5,650,CN1CCN(c2ccc(-c3cc(-c4cccc(C(=O)NCCC#N)c4)n[nH]3)cc2)CC1
6,170,CN1CCN(c2ccc(-c3cc(-c4cccc(C(=O)NCCO)c4)n[nH]3)cc2)CC1
7,> 960,CN(C)CCNC(=O)c1cccc(-c2cc(-c3ccc(N4CCN(C)CC4)cc3)[nH]n2)c1
8,170,CN1CCN(c2ccc(-c3cc(-c4cccc(C(=O)NCC(F)(F)F)c4)n[nH]3)cc2)CC1
9,< 10,C[C@H](C#N)NC(=O)c1cccc(-c2cc(-c3ccc(N4CCN(C)CC4)cc3)on2)c1
10,> 970,CC(C)NCc1ccc(-c2cc(-c3cccc(C(=O)NC(C)C)c3)[nH]n2)cc1
11,> 990,CC(C)NCc1ccc(-c2cc(-c3cccc(C(=O)N[C@H](C)C#N)c3)[nH]n2)cc1
12,> 870,CC(C)NCc1ccc(-c2cc(-c3cccc(C(=O)N[C@H](C)C#N)c3)no2)cc1

# Experiment: AUC (0 to 8 hrs) in Sprague-Dawley rat at 2 mg/kg, iv or 5 mg/kg, po
# Type: ADME, organism-based
# Conditions: plasma
row,AUC(0-t) [µM·h],SMILES
1,0.84,C[C@H](C#N)NC(=O)c1cccc(-c2cc(-c3ccc(CNC4CCOCC4)cc3)on2)c1

# Experiment: Volume of distribution at steady state in Sprague-Dawley rat at 2 mg/kg, iv or 5 mg/kg, po
# Type: ADME, organism-based
# Conditions: in vivo, read-out: Vdss
row,Vd [L/kg],SMILES
1,6,C[C@H](C#N)NC(=O)c1cccc(-c2cc(-c3ccc(CNC4CCOCC4)cc3)on2)c1

# Experiment: Oral bioavailability in Sprague-Dawley rat at 5 mg/kg
# Type: ADME, organism-based
# Conditions: in vivo
row,bioavailability [%],SMILES
1,38,C[C@H](C#N)NC(=O)c1cccc(-c2cc(-c3ccc(CNC4CCOCC4)cc3)on2)c1
